Data as given in patent publication US20240099951A1, “HAIR GROWTH STIMULANT” (ADJUVANT HOLDINGS CO., LTD., priority 2020, published 2024).

Assays:
[1] = test system: hair groups derived from C57BL/6N dorsal body hair skin transplanted in Balb/c nu/nu mice; test: Evaluation of hair-diameter-increasing activity (hair shafts grown after third cycle of Exemplary Test 1); type: in vivo
Experimental: Dorsal body hair skin was collected from C57BL/6N mice (SLC) of age 7 to 8 weeks in accordance with a procedure similar to that at Exemplary Test 1, above, the drug being applied after the hair groups derived from the dorsal body hair skin that had been fabricated were transplanted in Balb/c nu/nu mice (SLC) of age 4 to 6 weeks. Testing and breeding of animals complied with pertinent laws, regulations, ordinances, and guidelines, and was performed with the approval of the Experimental Ethics Review Board of the Institute of Physical and Chemical Research. The following three solutions were used during testing. • 60% aqueous ethanol solution • 5% minoxidil solution • 1% phytosphingosine solution Measurement of increase in hair diameter was carried out using hair shafts which had grown following completion of the third cycle at Exemplary Test 1. Of the hair shafts that were collected, two zigzag hairs were used. Three locations were selected in regions where diameter was large in the central portions thereof using a square 100 μm on a side. Measurement of selected regions was carried out at five locations. Hairs as they existed following application of the drug were used for measurement of hair shaft diameter.

BALB/c-nu/nu mice = test: Evaluation of mitogenic activity (BrdU immunostaining of skin tissue); type: in vivo; settings: once per day for 7 days
Experimental: Dorsal body hair skin was collected from BALB/c-nu/nu mice (Japan SLC, Inc.; Japan) of age 7 to 8 weeks. Testing and breeding of animals complied with pertinent laws, regulations, ordinances, and guidelines, and was performed with the approval of the Experimental Ethics Review Board of the Institute of Physical and Chemical Research. The following drugs were respectively prepared. • Working Example: 3% phytosphingosine solution • Comparative Example: 60% aqueous ethanol solution A micropipette was used to apply 25 μL of the drug to the left and right dorsal regions of the BALB/c-nu/nu mice. A dryer was thereafter used to cause cool air to be directed at the location where this was applied and rapidly dry the drug. This procedure was carried out in repetitive fashion four times at each the left and right dorsal regions. This drug application procedure was carried out for seven days starting from the day following depilation. 24 hours and 48 hours prior to collection of dorsal body hair skin from BALB/c-nu/nu mice on which the drug had been applied for 7 days, a syringe (Terumo Corporation; Japan) was used to administer 0.5 mL of 10 mg/mL BrdU/physiological saline solution to the abdomen in the region of the hind legs of each mouse. Following euthanization by cervical dislocation of the BALB/c-nu/nu mice on the eighth day at the same time as when administration had been carried out, skin tissue was collected in a manner such as would not cause damage to the hair bulb. The collected skin tissue was immersed for 16 to 24 hours in SuperFix (Toyobo Co., Ltd.; Japan) fixative solution, following which this was washed four times in 1×PBS, placed in fresh 1X PBS, and stored. The necessary portion of the collected skin tissue was cut out therefrom, and a paraffin fluid exchange apparatus (Leica Microsystems GmbH; Germany) was used to fabricate a paraffin block therefrom. […] BrdU counts were measured at three locations of 100 μm^2 for the epidermal layer and the dermal layer, measurement being carried out at three sites of size on the same order for the hair follicle. […]

## CCCCCCCCCCCCCC[C@@H](O)[C@@H](O)[C@@H](N)CO [phytosphingosine]
[1]; 1% phytosphingosine solution applied, hair shafts after third cycle
  Hair shaft diameter: 20.15 μm
[1]; 1% phytosphingosine solution vs 60% aqueous ethanol solution
  hair shaft diameter as percent of control: 127%
BALB/c-nu/nu mice; 3% phytosphingosine solution
  mitogenic activity (BrdU counts) as compared with the negative control and the positive control: trend toward increased mitogenic activity
  mitogenic activity at the basal layer of the epidermis: increase in mitogenic activity
BALB/c-nu/nu mice; 3% phytosphingosine
  mitogenic activity at the hair follicle: improved
